{"source": "paper PMC3395597", "about": "“Structural Basis for the ABO Blood-Group Dependence of Plasmodium falciparum Rosetting” (PLoS Pathogens, 2012)", "molecular_target": "Head(wt) (NTS-DBL1α1-CIDR1γ of PfEMP1-VarO) (Plasmodium falciparum, UniProt B7T1P0)", "assay": "surface plasmon resonance (Biacore […]), immobilised trisaccharide-BSA", "type": "binding", "settings": "labelled compound: multivalent BSA conjugate, 6 atom spacer, average 21 sugar residues per BSA; PBS, 25 °C; protein 10 nM-1 µM", "data": [{"smiles": "C[C@@H]1O[C@@H](O[C@H]2C(O)O[C@H](CO)[C@H](O)[C@@H]2O[C@H]2O[C@H](CO)[C@H](O)[C@H](O)[C@H]2O)[C@@H](O)[C@H](O)[C@@H]1O", "note": "(stereo partly shown) [blood group B trisaccharide]", "values": [{"measurement": "surface plasmon resonance (Biacore 2000), immobilised trisaccharide-BSA", "value": "Direct binding of the recombinant Head(wt)domain to the blood group A and B trisaccharides"}]}]}
